# Reference: PubChem BioAssay (NCI)
#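 Each compound was tested at five concentrations against cells in 96-well plates for 48 hours. TGI marks complete inhibition of growth.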
# Legend:
# Assay in all cases: NCI-60 cell line screen, 48 h
# [1] = test system: A498 renal
# [2] = test system: CAKI-1 renal
# [3] = test system: DLD-1 colon
# [4] = test system: K-562 leukemia
# [5] = test system: KM20L2 colon
# [6] = test system: M19-MEL melanoma
# [7] = test system: NCI-H522 lung
# [8] = test system: RXF 393 renal
# [9] = test system: SNB-78 CNS
# [10] = test system: UO-31 renal
# [11] = test system: SK-OV-3 ovarian
# [12] = test system: MDA-MB-435
smiles,measurement,setting,value
CCCOc1ccc(/C=C/c2cc(OC)c(OC)c(OC)c2)cc1,TGI,[1],> 22.6 µM
same,TGI,[2],37.6 µM
same,TGI,[3],35.7 µM
same,TGI,[4],> 100 µM
same,TGI,[5],0.406 µM
same,TGI,[6],> 100 µM
same,TGI,[7],0.478 µM
same,TGI,[8],0.904 µM
same,TGI,[9],> 100 µM
same,TGI,[10],> 100 µM
CC(=O)/C=C1/c2ccccc2N(C(C)=O)C1O (stereo not given),TGI,[1],> 100 µM
same,TGI,[2],> 100 µM
same,TGI,[3],> 100 µM
same,TGI,[4],> 100 µM
same,TGI,[5],> 100 µM
same,TGI,[6],> 100 µM
same,TGI,[8],> 100 µM
same,TGI,[11],> 100 µM
same,TGI,[9],> 100 µM
same,TGI,[10],> 100 µM
CN1C(c2ccccc2)CC(=Nc2ccccc2)CC1c1ccccc1 (stereo not given),TGI,[2],42.3 µM
same,TGI,[3],24.2 µM
same,TGI,[4],> 100 µM
same,TGI,[5],26.5 µM
same,TGI,[6],15.7 µM
same,TGI,[7],17.4 µM
same,TGI,[8],31.4 µM
same,TGI,[11],8.12 µM
same,TGI,[9],37.2 µM
same,TGI,[10],47.8 µM
COC(=O)c1nc(-c2ccc(Cl)c(Cl)c2)nc2ccccc12,TGI,[1],> 73.7 µM
same,TGI,[2],> 100 µM
same,TGI,[3],> 100 µM
same,TGI,[4],> 100 µM
same,TGI,[5],> 100 µM
same,TGI,[6],> 100 µM
same,TGI,[7],> 100 µM
same,TGI,[8],42.9 µM
same,TGI,[11],31.2 µM
same,TGI,[9],> 100 µM
same,TGI,[10],> 100 µM
C=CCOc1cc2c(cc1C(C)c1ccc(OC)cc1)OCO2 (stereo not given),TGI,[1],> 100 µM
same,TGI,[2],> 100 µM
same,TGI,[3],> 100 µM
same,TGI,[4],> 100 µM
same,TGI,[5],1.21 µM
same,TGI,[6],> 100 µM
same,TGI,[12],1.91 µM
same,TGI,[7],0.541 µM
same,TGI,[8],0.485 µM
same,TGI,[9],> 100 µM
same,TGI,[10],> 87.8 µM
COc1ccc2[nH]c3c(cnn4cnnc34)c2c1,TGI,[2],> 100 µM
same,TGI,[3],> 100 µM
same,TGI,[4],> 100 µM
same,TGI,[5],> 100 µM
same,TGI,[6],> 100 µM
same,TGI,[7],> 100 µM
same,TGI,[8],> 100 µM
same,TGI,[11],> 100 µM
same,TGI,[10],> 100 µM
Cc1ccc2sc3cc(=O)cc(C)c-3nc2c1,TGI,[2],93.1 µM
same,TGI,[3],> 100 µM
same,TGI,[4],> 100 µM
same,TGI,[5],> 100 µM
same,TGI,[6],30.7 µM
same,TGI,[7],> 100 µM
same,TGI,[11],> 100 µM
same,TGI,[9],> 100 µM
same,TGI,[10],> 100 µM
CCCOc1ccc(/C=C\c2cc(OC)c(OC)c(OC)c2)cc1,TGI,[1],> 100 µM
same,TGI,[2],> 100 µM
same,TGI,[3],> 100 µM
same,TGI,[4],> 100 µM
same,TGI,[5],> 100 µM
same,TGI,[6],> 100 µM
same,TGI,[7],> 100 µM
same,TGI,[8],> 100 µM
same,TGI,[9],> 100 µM
same,TGI,[10],> 100 µM
Cc1cc2c(C(C)C)c(O)c(O)c3coc(/c1=c1/c(C)cc4c(C(C)C)c(=O)c(=O)c5coc1c45)c32,TGI,[1],24.8 µM
same,TGI,[2],26.9 µM
same,TGI,[3],16.4 µM
same,TGI,[4],16.5 µM
same,TGI,[5],18.1 µM
same,TGI,[6],19.7 µM
same,TGI,[7],19 µM
same,TGI,[8],23.1 µM
same,TGI,[11],33.7 µM
same,TGI,[9],25.2 µM
same,TGI,[10],31.1 µM
CCc1ccccc1NC(=O)CCc1nc(=S)[nH][nH]1,TGI,[1],> 100 µM
same,TGI,[2],> 100 µM
same,TGI,[3],> 100 µM
same,TGI,[4],> 100 µM
same,TGI,[5],> 100 µM
same,TGI,[6],> 100 µM
same,TGI,[7],> 100 µM
same,TGI,[8],> 100 µM
same,TGI,[11],> 100 µM
same,TGI,[9],> 100 µM
same,TGI,[10],> 100 µM
Cc1cc2c(cn1)C(=O)OCC2,TGI,[1],> 100 µM
same,TGI,[3],> 100 µM
same,TGI,[4],> 100 µM
same,TGI,[5],> 100 µM
same,TGI,[6],> 100 µM
same,TGI,[8],> 100 µM
same,TGI,[11],> 100 µM
same,TGI,[9],> 100 µM
same,TGI,[10],> 100 µM
Cc1ccccc1C(C#N)/C(=N/NC(=O)c1cc2ccccc2cc1O)C(=O)Nc1cccc(Cl)c1 (stereo not given),TGI,[1],> 100 µM
same,TGI,[2],> 100 µM
same,TGI,[3],> 100 µM
same,TGI,[4],> 100 µM
same,TGI,[5],94.4 µM
same,TGI,[6],52.1 µM
same,TGI,[7],78.3 µM
same,TGI,[11],> 100 µM
same,TGI,[9],> 100 µM
same,TGI,[10],8.4 µM
C/C(=N\NC(N)=S)c1ccc(/C(C)=N/NC(N)=S)cc1,TGI,[1],> 100 µM
same,TGI,[3],> 100 µM
same,TGI,[4],> 100 µM
same,TGI,[5],> 100 µM
same,TGI,[6],> 100 µM
same,TGI,[7],> 100 µM
same,TGI,[8],> 100 µM
same,TGI,[11],> 100 µM
same,TGI,[10],> 100 µM
COc1ccccc1NC(=O)CC(=O)n1nc(C)c(N=Nc2ccccc2F)c1C,TGI,[1],> 100 µM
same,TGI,[2],> 100 µM
same,TGI,[3],> 100 µM
same,TGI,[4],> 31.6 µM
same,TGI,[5],> 100 µM
same,TGI,[6],> 100 µM
same,TGI,[7],> 100 µM
same,TGI,[8],> 100 µM
same,TGI,[11],83.6 µM
same,TGI,[9],> 31.6 µM
same,TGI,[10],> 100 µM
C/C(=N\NC(=S)N(C)C)c1ncc[nH]1,TGI,[1],16.7 µM
same,TGI,[3],> 100 µM
same,TGI,[4],21.2 µM
same,TGI,[5],> 100 µM
same,TGI,[6],> 100 µM
same,TGI,[7],9.01 µM
same,TGI,[8],> 100 µM
same,TGI,[11],21.8 µM
same,TGI,[10],7.31 µM
CC(C)=CC(=O)Cc1nc2ccccc2[nH]c1=O,TGI,[1],> 100 µM
same,TGI,[2],> 100 µM
same,TGI,[3],> 100 µM
same,TGI,[4],> 100 µM
same,TGI,[5],> 100 µM
same,TGI,[6],> 100 µM
same,TGI,[8],79.2 µM
same,TGI,[11],> 100 µM
same,TGI,[9],> 100 µM
same,TGI,[10],> 100 µM
